{"source": "paper PMC10974533", "about": "“Cationicity Enhancement on the Hydrophilic Face of Ctriporin Significantly Reduces Its Hemolytic Activity and Improves the Antimicrobial Activity against Antibiotic-Resistant ESKAPE Pathogens” (Toxins, 2024)", "type_in_all_cases": "cell-based", "key": {"[1]": {"system": "P. aeruginosa ATCC27853", "experiment": "MIC, broth dilution, standard strain", "conditions": "broth dilution (CLSI), MHB, 37 °C, 16–20 h", "description": "(§1) The standard strains, including S. aureus ATCC29213 and ATCC25923, E. faecalis ATCC29212, E. coli ATCC25922 and ATCC35218, A. baumannii ATCC19606, K. pneumoniae ATCC700603, and P. aeruginosa ATCC27853, were purchased from the China Center of Type Culture Collection (CCTCC). The clinical strains of the ESKAPE pathogens were isolated from the affiliated hospitals of Hubei University of Medicine. All of them were stored at −80 °C before use. The drug sensitivities of the clinical strains were determined by the Kirby–Bauer test.\n(§2) The MICs were determined using the broth dilution method according to the guidelines of the Clinical and Laboratory Standards Institute (CLSI), as described in the previous studies. Briefly, the bacterial cells were incubated in Mueller–Hinton broth (MHB, Oxoid, Basingstoke, UK) at 37 °C and 150 rpm to the mid-growth phase and diluted to achieve a final concentration of 5 × 10^5 colony-forming units per milliliter (CFU/mL). Then, the cells were mixed with each peptide in different concentrations (1, 2, 4, 8, 16, 32, and 64 μg/mL). […] All experiments were repeated at least three times."}, "[2]": {"system": "S. aureus ATCC29213", "experiment": "MIC, broth dilution, standard strain", "conditions": "broth dilution (CLSI), MHB, 37 °C, 16–20 h", "description": "as §1, §2"}, "[3]": {"system": "S. aureus ATCC25923", "experiment": "MIC, broth dilution, standard strain", "conditions": "broth dilution (CLSI), MHB, 37 °C, 16–20 h", "description": "as §1, §2"}, "[4]": {"system": "E. coli ATCC25922", "experiment": "MIC, broth dilution, standard strain", "conditions": "broth dilution (CLSI), MHB, 37 °C, 16–20 h", "description": "as §1, §2"}, "[5]": {"system": "E. faecium ATCC29212", "experiment": "MIC, broth dilution, standard strain", "conditions": "broth dilution (CLSI), MHB, 37 °C, 16–20 h", "description": "as §1, §2"}, "[6]": {"system": "A. baumannii ATCC19606", "experiment": "MIC, broth dilution, standard strain", "conditions": "broth dilution (CLSI), MHB, 37 °C, 16–20 h", "description": "as §1, §2"}, "[7]": {"system": "E. coli ATCC35218", "experiment": "MIC, broth dilution, standard strain", "conditions": "broth dilution (CLSI), MHB, 37 °C, 16–20 h", "description": "as §1, §2"}, "[8]": {"system": "K. pneumoniae ATCC700603", "experiment": "MIC, broth dilution, standard strain", "conditions": "broth dilution (CLSI), MHB, 37 °C, 16–20 h", "description": "as §1, §2"}, "[9]": {"system": "A. baumannii 19295", "experiment": "MIC, broth dilution, clinical isolate", "conditions": "CRE/MDR clinical isolate", "description": "as §1, §2"}, "[10]": {"system": "E. coli 2678", "experiment": "MIC, broth dilution, clinical isolate", "conditions": "ESBL clinical isolate", "description": "as §1, §2"}, "[11]": {"system": "S. capitis 3255", "experiment": "MIC, broth dilution, clinical isolate", "conditions": "MRSC clinical isolate", "description": "as §1, §2"}, "[12]": {"system": "K. pneumoniae 9126", "experiment": "MIC, broth dilution, clinical isolate", "conditions": "CRE clinical isolate", "description": "as §1, §2"}, "[13]": {"system": "S. aureus 9124", "experiment": "MIC, broth dilution, clinical isolate", "conditions": "MRSA clinical isolate", "description": "as §1, §2"}, "[14]": {"system": "S. epidermidis 6943", "experiment": "MIC, broth dilution, clinical isolate", "conditions": "MRSE clinical isolate", "description": "as §1, §2"}, "[15]": {"system": "A. baumannii 19618", "experiment": "MIC, broth dilution, clinical isolate", "conditions": "CRE/MDR clinical isolate", "description": "as §1, §2"}, "[16]": {"system": "S. aureus 891", "experiment": "MIC, broth dilution, clinical isolate", "conditions": "MRSA clinical isolate", "description": "as §1, §2"}, "[17]": {"system": "E. faecium 898", "experiment": "MIC, broth dilution, clinical isolate", "conditions": "MDR clinical isolate", "description": "as §1, §2"}, "[18]": {"system": "E. coli 2687", "experiment": "MIC, broth dilution, clinical isolate", "conditions": "ESBL clinical isolate", "description": "as §1, §2"}, "[19]": {"system": "human red blood cells (hRBC)", "experiment": "Hemolytic activity determination", "conditions": "256 μg/mL peptide, 2% (v/v) hRBC, 37 °C, 1 h, OD540, 1% Triton X-100 = 100%; average ± standard error of three independent experiments", "description": "Figure 2 Hemolytic activities of Ctriporin and its analogs against human red blood cells (hRBC). Hemolytic activities of Ctriporin (solid circle), CM1 (open circle), CM2 (open square), CM3 (upward triangle), CM4 (downward triangle), CM5 (half solid circle), CM6 (half solid square), and CM7 (half solid triangle), were measured against 2% (v/v) human red blood cells. The peptide concentrations are 0, 2, 4, 8, 16, 32, 64, 128, 256, and 512 μg/mL. The cells treated with 1% Triton X-100 were treated as 100% hemolysis. All experiments were repeated three times, and the data shown are the average ± standard error.\nThe hemolytic activities of the peptides were determined against human red blood cells (hRBCs). As described, sodium citrate-anticoagulated hRBCs were washed three times with 0.9% sodium chloride and diluted to a final concentration of 4% (v/v). Then, an equal volume of hRBC solutions was mixed with an equal volume of each peptide in a series of concentrations (0, 2, 4, 8, 16, 32, 64, 128, 256, and 512 μg/mL). After co-incubation at 37 °C for 1 h, the degree of hemolysis of the peptides was determined by detecting the release of hemoglobin from the damaged hRBCs by measuring the optical density at 540 nm (OD540). hRBCs in 0.9% sodium chloride and 1% Triton X-100 were considered 0% and 100% hemolysis, respectively. The results shown are the average ± standard error of data derived from three independent experiments. The percent hemolysis was calculated according to the following equation [53, 54]:Hemolysis (%) = 100 × (Asample − Ablank)/(Apositive − Ablank)"}, "[20]": {"conditions": "5 × 10^5 CFU/mL, OD630, repeated at least three times"}, "[21]": {"conditions": "broth dilution (CLSI), MHB, 5 × 10^5 CFU/mL, 37 °C, 16–20 h, OD630"}}, "note": "Where a SMILES comes first, the peptide text is derived from it."}
{"smiles": "CC[C@H](C)[C@H](NC(=O)[C@H](C)NC(=O)CNC(=O)[C@@H]1CCCN1C(=O)[C@@H](NC(=O)[C@H](CC(C)C)NC(=O)CNC(=O)[C@H](Cc1c[nH]c2ccccc12)NC(=O)[C@H](CC(C)C)NC(=O)[C@@H](N)Cc1ccccc1)[C@@H](C)CC)C(=O)N[C@@H](CO)C(=O)N[C@@H](C)C(=O)N[C@H](C(=O)N[C@H](C(=O)N[C@@H](CO)C(=O)N[C@@H](CC(C)C)C(=O)N[C@H](C(=O)N[C@@H](CCCCN)C(=O)N[C@@H](CCCCN)C(N)=O)[C@@H](C)CC)[C@@H](C)O)C(C)C", "note": "[Ctriporin] (H-FLWGLIPGAISAVTSLIKK-NH2; N-terminus assumed)", "values": [{"measurement": "MICs", "setting": "[1]; [20]", "value": "> 64", "unit": "µg/mL"}, {"measurement": "MICs", "setting": "[1]; value in parentheses", "value": "> 31.8", "unit": "µM"}, {"measurement": "MICs", "setting": "[2]; [20]", "value": 16, "unit": "µg/mL"}, {"measurement": "MICs", "setting": "[2]; value in parentheses", "value": 8.0, "unit": "µM"}, {"measurement": "MICs", "setting": "[3]; [20]", "value": 32, "unit": "µg/mL"}, {"measurement": "MICs", "setting": "[3]; value in parentheses", "value": 15.9, "unit": "µM"}, {"measurement": "MICs", "setting": "[4]; [20]", "value": 64, "unit": "µg/mL"}, {"measurement": "MICs", "setting": "[4]; value in parentheses", "value": 31.8, "unit": "µM"}, {"measurement": "MICs", "setting": "[5]; [20]", "value": 64, "unit": "µg/mL"}, {"measurement": "MICs", "setting": "[5]; value in parentheses", "value": 31.8, "unit": "µM"}, {"measurement": "MICs", "setting": "[6]; [20]", "value": 16, "unit": "µg/mL"}, {"measurement": "MICs", "setting": "[6]; value in parentheses", "value": 8.0, "unit": "µM"}, {"measurement": "MICs", "setting": "[7]; [20]", "value": "> 64", "unit": "µg/mL"}, {"measurement": "MICs", "setting": "[7]; value in parentheses", "value": "> 31.8", "unit": "µM"}, {"measurement": "MICs", "setting": "[8]; [20]", "value": "> 64", "unit": "µg/mL"}, {"measurement": "MICs", "setting": "[8]; value in parentheses", "value": "> 31.8", "unit": "µM"}, {"measurement": "MICs", "setting": "[9]; [21]", "value": 32, "unit": "µg/mL"}, {"measurement": "MICs", "setting": "[9]; value in parentheses", "value": 15.9, "unit": "µM"}, {"measurement": "MICs", "setting": "[10]; [21]", "value": 64, "unit": "µg/mL"}, {"measurement": "MICs", "setting": "[10]; value in parentheses", "value": 31.8, "unit": "µM"}, {"measurement": "MICs", "setting": "[11]; [21]", "value": 8, "unit": "µg/mL"}, {"measurement": "MICs", "setting": "[11]; value in parentheses", "value": 4.0, "unit": "µM"}, {"measurement": "MICs", "setting": "[12]; [21]", "value": "> 64", "unit": "µg/mL"}, {"measurement": "MICs", "setting": "[12]; value in parentheses", "value": "> 31.8", "unit": "µM"}, {"measurement": "MICs", "setting": "[13]; [21]", "value": 8, "unit": "µg/mL"}, {"measurement": "MICs", "setting": "[13]; value in parentheses", "value": 4.0, "unit": "µM"}, {"measurement": "MICs", "setting": "[14]; [21]", "value": 8, "unit": "µg/mL"}, {"measurement": "MICs", "setting": "[14]; value in parentheses", "value": 4.0, "unit": "µM"}, {"measurement": "MICs", "setting": "[15]; [21]", "value": 32, "unit": "µg/mL"}, {"measurement": "MICs", "setting": "[15]; value in parentheses", "value": 15.9, "unit": "µM"}, {"measurement": "MICs", "setting": "[16]; [21]", "value": 16, "unit": "µg/mL"}, {"measurement": "MICs", "setting": "[16]; value in parentheses", "value": 8.0, "unit": "µM"}, {"measurement": "MICs", "setting": "[17]; [21]", "value": 16, "unit": "µg/mL"}, {"measurement": "MICs", "setting": "[17]; value in parentheses", "value": 8.0, "unit": "µM"}, {"measurement": "MICs", "setting": "[18]; [21]", "value": "> 64", "unit": "µg/mL"}, {"measurement": "MICs", "setting": "[18]; value in parentheses", "value": "> 31.8", "unit": "µM"}, {"measurement": "Hemolysis% at 256 μg/mL", "setting": "[19]", "value": "90.6 ± 11.8", "unit": "%"}]}
